Converted amounts (≈) assume the structure as drawn.
Experiments:
Type in all cases: cell-based
Stapylococcus aureus [1] = assay: agar diffusion test; settings: 10 μg/9 mm Ø plate
Bacillus subtillis [2] = assay: agar diffusion test; settings: 10 μg/9 mm Ø plate
Escherichia coli [3] = assay: agar diffusion test; settings: 10 μg/9 mm Ø plate
Bacillus subtillis [4] = assay: dilution method MIC
Candida albicans = assay: agar diffusion test; settings: 10 μg/9 mm Ø plate
Mucor miehei = assay: agar diffusion test; settings: 10 μg/9 mm Ø plate
Chlorella sorokiniana = assay: dilution method MIC
Scenedesmus subspicatus = assay: dilution method MIC
Escherichia coli [5] = assay: dilution method MIC
Stapylococcus aureus [6] = assay: dilution method MIC

Compound | diameter of the inhibition zone, SA (Stapylococcus aureus [1]) [mm] | diameter of the inhibition zone, BS (Bacillus subtillis [2]) [mm] | diameter of the inhibition zone, EC (Escherichia coli [3]) [mm] | MIC, BS (Bacillus subtillis [4]) [µg/mL] | diameter of the inhibition zone, CA (Candida albicans) [mm] | diameter of the inhibition zone, MM (Mucor miehei) [mm] | MIC, CS (Chlorella sorokiniana) [µg/mL] | MIC, SS (Scenedesmus subspicatus) [µg/mL] | MIC, EC (Escherichia coli [5]) [µg/mL] | MIC, SA (Stapylococcus aureus [6]) [µg/mL]
CC[C@H]1OC(=O)[C@H](C)[C@@H](O[C@H]2C[C@@](C)(OC)[C@@H](O)[C@H](C)O2)[C@H](C)[C@@H](O[C@@H]2O[C@H](C)C[C@H](N(C)C)[C@H]2O)[C@](C)(O)C[C@@H](C)C(=O)[C@H](C)[C@@H](O)[C@]1(C)O [E, erythromycin] | 24 | 22 | 30 | – | – | – | – | – | – | –
chalcomycin B [1b] | 23 | 21 | 28 | 6.25 | 0 | 0 | 50 | 50 | >50 | 0.39
CO[C@@H]1[C@H](O)[C@@H](C)O[C@@H](OC[C@H]2[C@@H]3O[C@H]3/C=C/C(=O)[C@@](C)(O)C[C@H](C)[C@H](O[C@@H]3O[C@H](C)C[C@H](OC)[C@H]3O)[C@@H](C)/C=C/C(=O)O[C@@H]2C)[C@@H]1OC [1a, Chalcomycin] | 30 | 25 | 32 | 6.25 (≈ 8.92 µM) | 0 | 0 | 50 (≈ 71.3 µM) | 50 (≈ 71.3 µM) | >50 | 0.39 (≈ 0.556 µM)

Source: patent publication US20060111309A1, “Chalcomycin derivatives” (Biofrontera Discovery GmbH, priority 2002, published 2006)
